tested on: not listed separately; assay: Selectivity for alpha-7 over alpha4beta2

SMILES	Selectivity ratio
C[N+](C)(C)CCOc1cccnc1	560

biological target: Neuronal acetylcholine receptor subunit alpha-7 (Rattus norvegicus, UniProt Q05941); assay: Displacement of [125I]iodo-MLA from alpha-7 nAChR in rat cerebral cortex; assay type: tissue-based
Sequence (Q05941 whole entry): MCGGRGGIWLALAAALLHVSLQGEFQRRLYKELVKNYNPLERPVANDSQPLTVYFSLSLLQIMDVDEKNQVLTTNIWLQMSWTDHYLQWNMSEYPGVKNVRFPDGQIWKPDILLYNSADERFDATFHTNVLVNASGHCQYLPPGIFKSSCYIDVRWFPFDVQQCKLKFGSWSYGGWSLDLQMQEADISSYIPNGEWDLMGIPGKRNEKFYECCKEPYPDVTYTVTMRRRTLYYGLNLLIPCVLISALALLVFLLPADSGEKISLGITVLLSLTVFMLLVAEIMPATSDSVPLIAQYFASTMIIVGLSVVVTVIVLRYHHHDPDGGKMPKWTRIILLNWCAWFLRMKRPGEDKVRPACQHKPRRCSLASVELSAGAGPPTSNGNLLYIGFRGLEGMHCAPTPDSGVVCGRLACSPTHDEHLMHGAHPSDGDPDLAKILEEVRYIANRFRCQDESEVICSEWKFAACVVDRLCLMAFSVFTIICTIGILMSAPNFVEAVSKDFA

SMILES	Ki [µM]
C[N+](C)(C)CCOc1ccc(CCc2ccccc2)nc1	4.32
CN(C)CCOc1cccnc1	> 10
CN(C)CCOc1ccc(CCc2ccccc2)cc1	> 10
CN(C)CCOc1ccc(CCc2ccccc2)nc1	> 10
C[N+](C)(C)CCOc1ccc(CCc2ccccc2)cc1	7.5
C[N+](C)(C)CCOc1cccnc1	0.28
C[N+](C)(C)CCCOc1cccnc1	> 10
CCN(C)CCOc1cccnc1	> 10
C[N+](C)(C)CCOc1ccc(/C=C/c2ccccc2)nc1	1.25
CN(C)CCOc1ccc(/C=C/c2ccccc2)nc1	> 10
CN(C)CCOc1ccc(/C=C/c2ccccc2)cc1	> 10
C[N+](C)(C)CCOc1ccc(/C=C/c2ccccc2)cc1	2.17
CNCCOc1cccnc1	> 10
CN1CCCC1c1ccc(CCc2ccccc2)nc1 (racemic)	> 10
CNC/C=C\c1cccnc1	> 10
CNC/C=C/c1cccnc1	> 10
C[N+](C)(C)CCOc1ccccc1	1.1
CN(C)CCOc1ccccc1	> 10
CNCCCc1cccnc1	> 10

From ChEMBL document CHEMBL1146864, “Aryloxyethylamines: binding at alpha7 nicotinic acetylcholine receptors” (Bioorg Med Chem Lett, 2006)
